# Measured values taken from US5631401A, “Inhibitors of protein farnesyltransferase and squalene synthase” (Abbott Laboratories, priority 1995, dated 1997).
# Molecular target: T1, Rat brain protein farnesyltransferase (Rattus norvegicus, UniProt Q02293+Q04631)
# T1 construct: The enzyme was purified according to Reiss, Y., et al., Cell, 62: 81-88 (1990), utilizing steps one through three; from tissue; host or cells: rat brain
# Experiment: In vitro inhibition of protein farnesyltransferase (biotin-lamin substrate, scintillation proximity assay)
# Format: biochemical
# Details: 1 μM (footnote *); read-out: % Inhibition at 1 μM (protein farnesyltransferase, values marked *)
# Method: In vitro inhibition of protein farnesyltransferase may be measured by the following procedure. (Procedures for determination of the inhibition of farnesylation of the oncogene protein Ras are described by Goldstein, et al., J. Biol. Chem., 266: 15575-15578 (1991) and by Singh in U.S. Pat. No. 5,245,061 both of which are incorporated herein by reference.)
# Rat brain protein farnesyltransferase activity was measured using the biotin-lamin substrate (which is known to undergo farnesylation in a manner analogous to Ras protein) and radioactive farnesyl diphosphate provided by Amersham Life Science in their commercial scintillation proximity assay kit for the determination of farnesyltransferase. The enzyme was purified according to Reiss, Y., et al., Cell, 62: 81-88 (1990), utilizing steps one through three. The specific activity of the enzyme was approximately 10 nmol substrate farnesylated/mg enzyme/hour. […]
row,inhibition at 1 µM,SMILES
1,23%,"CCCN(CC=C=Cc1ccccc1)C(=O)C1C(C(=O)O)C(C(=O)N(CC=C=Cc2ccccc2)CCC)C1C(=O)O (stereo not drawn) [Example 60, (1α,2β,3β,4α)-1,3-Di[N-propyl-N-(4-phenyl-2,3-butadien-1-yl)aminocarbonyl]cyclobutane-2,4-dicarboxylic acid]"
2,22%,CCCN(Cc1ccc(Oc2nccs2)cc1)C(=O)C1C(C(=O)O)C(C(=O)N(CCC)Cc2ccc(Oc3nccs3)cc2)C1C(=O)O (stereo not drawn) [Example 55]
3,66%,C[C@H](c1ccccc1)N(Cc1ccc(Oc2ccccc2)cc1)C(=O)[C@H]1[C@H](C(=O)O)[C@H](C(=O)N(Cc2ccc(Oc3ccccc3)cc2)[C@H](C)c2ccccc2)[C@H]1C(=O)O [Example 90]
4,54%,"O=C(O)CN(Cc1ccc(Oc2ccccc2)cc1)C(=O)C1C(C(=O)O)C(C(=O)N(CC(=O)O)Cc2ccc(Oc3ccccc3)cc2)C1C(=O)O (stereo not drawn) [Example 43, (1α,2β,3β,4α)-1,3-Di[N-carboxymethyl-N-(4-phenoxybenzyl)aminocarbonyl]cyclobutane-2,4-dicarboxylic acid]"
5,22%,"O=C(O)[C@H]1[C@H](C(=O)N(CCO)Cc2ccc(Oc3ccccc3)cc2)[C@H](C(=O)O)[C@H]1C(=O)N(CCO)Cc1ccc(Oc2ccccc2)cc1 [Example 74, (1α,2β,3β,4α)-1,3-Di[N-(2-hydroxyethyl)-N-(4-phenoxybenzyl)aminocarbonyl]cyclobutane-2,4-dicarboxylic acid]"
6,61%,"C[C@H](C/C=C/c1ccccc1)CN(Cc1ccccc1)C(=O)[C@H]1[C@H](C(=O)O)[C@H](C(=O)N(Cc2ccccc2)C[C@H](C)C/C=C/c2ccccc2)[C@H]1C(=O)O [Example 86, (1α,2β,3β,4α)-1,3-Di [N-benzyl-N-{(E)-(2R)-2-methyl-5-phenyl-4-pentenyl}aminocarbonyl]cyclobutane-2,4-dicarboxylic acid]"
7,52%,"CCCN(Cc1ccc(COc2ccccc2)cc1)C(=O)C1C(C(=O)O)C(C(=O)N(CCC)Cc2ccc(COc3ccccc3)cc2)C1C(=O)O (stereo not drawn) [Example 65, (1α,2β,3β,4α)-1,3-Di[N-propyl-N-(4-phenoxymethylbenzyl)aminocarbonyl]-2,4-cyclobutanedicarboxylic acid]"
8,21%,"CCCN(C[C@H](C)CCCc1ccccc1)C(=O)[C@H]1[C@H](C(=O)O)[C@H](C(=O)N(CCC)C[C@H](C)CCCc2ccccc2)[C@H]1C(=O)O [Example 82, (1α,2β,3β,4α)-1,3-Di [N-((2R)-2-methyl-5-phenylpentyl)-N-(n-propyl)aminocarbonyl]cyclobutane-2,4-dicarboxylic acid]"
9,45%,"O=C(O)[C@H]1[C@H](C(=O)N2CC=C(c3ccc(Oc4ccccc4)cc3)CC2)[C@H](C(=O)O)[C@H]1C(=O)N1CC=C(c2ccc(Oc3ccccc3)cc2)CC1 [Example 92, (1α,2α,3β,4β)-1,3-Di[4-(4-phenoxyphenyl)-1,2,3,6-tetrahydropyridin-1-ylcarbonyl]cyclobutane-2,4-dicarboxylic acid]"
10,71%,"C[C@H](c1cccc2ccccc12)N(Cc1ccc(Oc2ccccc2)cc1)C(=O)[C@H]1[C@H](C(=O)O)[C@H](C(=O)N(Cc2ccc(Oc3ccccc3)cc2)[C@H](C)c2cccc3ccccc23)[C@H]1C(=O)O [Example 96, (1α,2β,3β,4α)-1,3-Di[N-((2R)-2-(1-naphthyl)eth-2-yl) -N-(4-phenoxybenzyl)aminocarbonyl]cyclobutane-2,4-dicarboxylic acid]"

row,SMILES,inhibition at 1 µM
1,"CC(=O)OC(CCCN(Cc1ccccc1)C(=O)C1C(C(=O)O)C(C(=O)N(CCCC(OC(C)=O)C(C)Cc2ccccc2)Cc2ccccc2)C1C(=O)O)C(C)Cc1ccccc1 (stereo not drawn) [Example 84, (1α,2β,3β,4α)-1,3-Di [N-benzyl-N-{syn-(4-acetoxy-5-methyl) -6-phenylhexyl}aminocarbonyl]cyclobutane-2,4-dicarboxylic acid]",93%

# Same assay, conditions: 10 μM; compared to uninhibited control
row,SMILES,inhibition at 10 µM
1,"CCCN(CC#CCc1ccccc1)C(=O)[C@H]1[C@H](C(=O)O)[C@H](C(=O)N(CC#CCc2ccccc2)CCC)[C@H]1C(=O)O [Example 61, (1α,2β,3β,4α)-1,3-Di{N-propyl-N-(4-phenylbut-2-yn-1-yl)aminocarbonyl}cyclobutane-2,4-dicarboxylic acid]",73%
2,"CCCN(CCCCOc1ccccc1)C(=O)[C@H]1[C@H](C(=O)O)[C@H](C(=O)N(CCC)CCCCOc2ccccc2)[C@H]1C(=O)O [Example 39, (1α,2β,3β,4α)-1,3-Di[N-propyl-N-(4-phenoxybutyl)aminocarbonyl]cyclobutane-2,4-dicarboxylic acid]",66%
3,"O=C(O)[C@H]1[C@H](C(=O)OCc2ccc(Oc3ccccc3)cc2)[C@H](C(=O)O)[C@H]1C(=O)OCc1ccc(Oc2ccccc2)cc1 [Example 36, (1α,2β,3β,4α)-1,3-Di[4-phenoxybenzyloxycarbonyl]cyclobutane-2,4-dicarboxylic acid]",24%
4,"O=C(O)[C@H]1[C@H](C(=O)N(Cc2ccc(Oc3ccccc3)cc2)Cc2ccc3oc4ccccc4c3c2)[C@H](C(=O)O)[C@H]1C(=O)N(Cc1ccc(Oc2ccccc2)cc1)Cc1ccc2oc3ccccc3c2c1 [Example 95, (1α,2β,3β,4α)-1,3-Di[N-(dibenzofuran-2-ylmethyl)-N-(4-phenoxybenzyl)aminocarbonyl]cyclobutane-2,4-dicarboxylic acid]",55%
5,"CCCN(Cc1ccc(Oc2ccccc2)cc1)C(=O)C1C(C(=O)O)C(C(=O)N(CCC)Cc2ccc(Oc3ccccc3)cc2)C1C(=O)O (stereo not drawn) [Example 47, (1α,2β,3β,4α)-1,3-Di[N-propyl-N-(4-phenoxybenzyl)aminocarbonyl]cyclobutane-2,4-dicarboxylic acid]",50%
6,"CCCN(Cc1ccc(Oc2ccccc2)cc1)C(=O)[C@H]1[C@H](C(=O)O)[C@H](C(=O)N(C)CC/C=C(\C)CCC=C(C)C)[C@H]1C(=O)O (relative stereo) [Example 41, (1α,2β,3β,4α)-1-[N-Propyl-N-(4-phenoxybenzyl)aminocarbonyl]-3-[N-methyl-N-(homogeranyl)aminocarbonyl]cyclobutane-2,4-dicarboxylic acid]",63%
7,"CCCN(Cc1ccc(Oc2ccccc2C)cc1)C(=O)C1C(C(=O)O)C(C(=O)N(CCC)Cc2ccc(Oc3ccccc3C)cc2)C1C(=O)O (stereo not drawn) [Example 50, (1α,2β,3β,4α)-1,3-Di[N-propyl-N-(4-(2-methylphenoxy)benzyl)aminocarbonyl]cyclobutane-2,4-dicarboxylic acid]",35%
8,"CCCN(C(=O)C1C(C(=O)O)C(C(=O)N(CCC)c2ccc(Oc3ccccc3)cc2)C1C(=O)O)c1ccc(Oc2ccccc2)cc1 (stereo not drawn) [Example 66, (1α,2β,3β,4α)-1,3-Di[N-propyl-N-(4-phenoxyphenyl)aminocarbonyl]cyclobutane-2,4-dicarboxylic acid]",88%

# Further lines, results first:
row,inhibition at 10 µM,SMILES
1,61%,"CCCN(Cc1ccc(Oc2ccc3c(c2)OCO3)cc1)C(=O)C1C(C(=O)O)C(C(=O)N(CCC)Cc2ccc(Oc3ccc4c(c3)OCO4)cc2)C1C(=O)O (stereo not drawn) [Example 48, (1α,2β,3β,4α)-1,3-Di[N-propyl-N-(4-(3,4-methylenedioxyphenoxy)benzyl)aminocarbonyl]cyclobutane-2,4-dicarboxylic acid]"
2,23%,"COc1ccc2c(c1)CCN(C(=O)C1C(C(=O)O)C(C(=O)N3CCc4cc(OC)ccc4C3)C1C(=O)O)C2 (stereo not drawn) [Example 49, (1α,2β,3β,4α)-1,3-Di[6-methoxy-1,2,3,4-tetrahydroisoquinolin-2-ylcarbonyl]cyclobutane-2,4-dicarboxylic acid]"
3,51%,"CCCN(Cc1ccc(Oc2ccccc2)o1)C(=O)C1C(C(=O)O)C(C(=O)N(CCC)Cc2ccc(Oc3ccccc3)o2)C1C(=O)O (stereo not drawn) [Example 52, (1α,2β,3β,4α)-1,3-Di[N-propyl-N-(5-phenoxyfurfuryl)aminocarbonyl]cyclobutane-2,4-dicarboxylic acid]"
4,22%,"CCCN(Cc1ccc(OC2CCCCC2)cc1)C(=O)[C@H]1[C@H](C(=O)O)[C@H](C(=O)N(CCC)Cc2ccc(OC3CCCCC3)cc2)[C@H]1C(=O)O [Example 37, (1α,2β,3β,4α)-1,3-Di[N-propyl-N-(4-cyclohexyloxybenzyl)aminocarbonyl]cyclobutane-2,4-dicarboxylic acid]"
5,37%,"O=C(O)[C@H]1[C@H](C(=O)N2CCCC(c3ccccc3)C2)[C@H](C(=O)O)[C@H]1C(=O)N1CCCC(c2ccccc2)C1 (relative stereo) [Example 83, (1α,2β,3β,4α)-1,3-Di [(3-phenylpiperidin-1-yl)carbonyl]cyclobutane-2,4-dicarboxylic acid]"
6,85%,"CCCN(CCCCCc1ccccc1)C(=O)[C@H]1[C@H](C(=O)O)[C@H](C(=O)N(CCC)CCCCCc2ccccc2)[C@H]1C(=O)O [Example 38, (1α,2β,3β,4α)-1,3-Di[N-propyl-N-(5-phenylpentyl)aminocarbonyl]cyclobutane-2,4-dicarboxylic acid]"
7,78%,"CCCN(Cc1ccc(Cn2cccc2)cc1)C(=O)C1C(C(=O)O)C(C(=O)N(CCC)Cc2ccc(Cn3cccc3)cc2)C1C(=O)O (stereo not drawn) [Example 56, (1α,2β,3β,4α)-1,3-Di[N-propyl-N-(4-(pyrrol-1-ylmethyl)benzyl)aminocarbonyl]cyclobutane-2,4-dicarboxylic acid]"
8,69%,"CCCN(Cc1ccc(Nc2ccccc2)cc1)C(=O)C1C(C(=O)O)C(C(=O)N(CCC)Cc2ccc(Nc3ccccc3)cc2)C1C(=O)O (stereo not drawn) [Example 62, (1α,2β,3β,4α)-1,3-Di[N-propyl-N-(4-phenylaminobenzyl)aminocarbonyl]cyclobutane-2,4-dicarboxylic acid]"
